# From US8546593B2, “Methods and compositions for novel liquid crystal delivery systems” (Copperhead Chemical Company, Inc., priority 2009, dated 2013)
# Tested on: Staphylococcus aureus
# Assay: Minimum inhibitory concentration against Staphylococcus aureus
# Assay type: cell-based
# Settings: read-out: minimum inhibitory concentration (MIC)
smiles,measurement,value
CCCCCCCCCCCC(=O)OCC(O)CO (stereo not shown) [glycerol monolaurate],MIC,55 µg/mL
